Test results from PubChem BioAssay (NCI).
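Step 1: Grow cells in 96-well plates. Step 2: Expose to compound for 48 hours at 5 concentrations. Step 3: Interpolate endpoints linearly; if unreached, use highest concentration. GI50: concentration for 50% inhibition of growth. TGI is the concentration that stops growth completely.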 Where a SMILES comes first, the peptide text is derived from it. The star is where a group is joined. Boc = CC(C)(C)OC(=O)*

Tests used:
Assay in all cases: inhibition of tumour cell growth, NCI panel, 48 h
ACHN renal = test system: ACHN renal
RXF 393 renal = test system: RXF 393 renal
SF-295 CNS = test system: SF-295 CNS
NCI-H23 lung = test system: NCI-H23 lung
MDA-MB-435 = test system: MDA-MB-435
SK-MEL-28 melanoma = test system: SK-MEL-28 melanoma
SW-620 colon = test system: SW-620 colon
M14 melanoma = test system: M14 melanoma
SK-MEL-2 melanoma = test system: SK-MEL-2 melanoma
HT29 colon = test system: HT29 colon
HS 578T breast = test system: HS 578T breast
CAKI-1 renal = test system: CAKI-1 renal
HCT-15 colon = test system: HCT-15 colon
HCT-116 colon = test system: HCT-116 colon
EKVX NSCLC = test system: EKVX NSCLC
A549 NSCLC = test system: A549 NSCLC
A498 renal = test system: A498 renal
HCC-2998 colon = test system: HCC-2998 colon

Row | Structure (SMILES) | TGI (ACHN renal) [µM] | TGI (RXF 393 renal) [µM] | TGI (SF-295 CNS) [µM] | TGI (NCI-H23 lung) [µM] | TGI (MDA-MB-435) [µM] | TGI (SK-MEL-28 melanoma) [µM] | TGI (SW-620 colon) [µM] | TGI (M14 melanoma) [µM] | TGI (SK-MEL-2 melanoma) [µM] | TGI (HT29 colon) [µM] | TGI (HS 578T breast) [µM] | TGI (CAKI-1 renal) [µM] | TGI (HCT-15 colon) [µM] | TGI (HCT-116 colon) [µM] | TGI (EKVX NSCLC) [µM] | TGI (A549 NSCLC) [µM] | TGI (A498 renal) [µM] | TGI (HCC-2998 colon) [µM] | GI50 (HCT-15 colon) [µM] | GI50 (HCC-2998 colon) [µM]
1 | CN(C)CCn1c(=O)oc2cc(C(=O)CN3CCOCC3)ccc21 | > 100 | > 100 | > 100 | > 100 | > 100 | > 100 | > 100 | > 100 | > 100 | > 100 | > 100 | > 100 | > 100 | > 100 | > 100 |  |  |  |  | 
2 | COC(=O)C(Cc1c[nH]c2ccccc12)NC(=O)C(Cc1c[nH]c2ccccc12)NC(=O)C(Cc1c[nH]c2ccccc12)NC(=O)OC(C)(C)C (stereo not drawn) (Boc-Trp-Trp-Trp-OMe; configuration not given here) | 32.5 | 21 |  | 31.8 |  | 33.8 | 40.7 | > 100 | 35.8 | 35.9 | 48.4 |  | 41.4 | 29.8 | > 100 | > 100 | > 100 | 32.9 |  | 
3 | COc1cc(/C=C2\N=C(c3ccccc3)N(c3nc4cc(C)c(C)cc4s3)C2=O)cc(OC)c1OC | 83.9 | 65.2 | > 100 |  | 54.9 | > 100 | > 100 | > 100 | > 100 | 48.6 | 98 | > 100 | > 100 | 50.4 | 70.7 | > 100 |  | 45.7 |  | 
4 | Cc1ccc(/C=C/C(=O)C(C)C)cc1 | > 100 | > 100 | > 100 | > 100 |  | > 100 | > 100 | > 100 | > 100 | > 100 |  |  |  |  | > 100 | > 100 | > 100 | > 100 |  | 
5 | O=S(=O)(O)c1cc(N=Nc2cc(S(=O)(=O)O)c3ccccc3c2O)ccc1/C=C/c1ccc(N=Nc2cc(S(=O)(=O)O)c3ccccc3c2O)cc1S(=O)(=O)O | > 755 | > 1000 | > 731 | 975 | 258 | > 1000 | > 1000 | > 355 | > 620 | > 740 | 756 | > 756 | > 727 | > 433 | > 632 | > 1000 |  | > 1000 | 186 | > 1000
6 | Cc1ccc(S(=O)(=O)NC(=O)NC(C(=O)O)C(C)O)cc1 (configuration not stated) | > 100 | > 100 | > 100 | > 100 |  | > 100 | > 100 | > 100 | > 100 | > 100 | > 100 |  | > 100 | > 100 |  | > 100 |  |  |  | 
7 | CC1(C)C(=O)N(O)C(C)(C)N1N=O | > 10 | > 10 | > 10 | > 10 | > 10 |  | > 10 | > 10 | > 10 | > 10 |  | > 10 | > 10 | > 10 | > 10 | > 10 |  | > 10 |  | 
8 | COC(=O)/C(=N\N)C(C(=O)C(=O)Nc1cccc([N+](=O)[O-])c1)c1nc2ccc(C(=O)c3ccccc3)cc2[nH]c1=O (configuration not stated) | > 100 | > 100 | > 100 | > 100 | > 100 | > 100 | > 100 | > 100 | > 100 | > 100 | > 100 | > 100 | > 100 | > 100 | > 100 | > 100 |  | > 100 |  | 
9 | Cc1cc(C)c(S(=O)(=O)N(CCCCCCN)OCCCN)c(C)c1 | 30.9 |  | 34.8 | 32 | > 100 | 36.1 | 40.4 | 44.9 | 36 | 30 | 30.2 |  | 32.5 | 31.7 | 29.9 | > 100 |  | 32.6 |  | 
10 | Nc1ccc(C(=O)NN2C(=O)C(Cl)C2c2cc(Br)cc(Br)c2O)cc1 (configuration not stated) | 61.9 | 79.8 | > 100 | 58 |  | > 100 | > 100 | 28.2 | > 100 | > 100 |  | 64 | > 100 | > 100 | 59.5 | 91.1 |  | > 100 |  | 
11 | O=[N+]([O-])c1cc2c(cc1O)[nH]c1cccc([N+](=O)[O-])c12 | > 100 |  | > 100 | > 100 |  | > 100 | > 100 | > 100 | > 100 | > 100 |  | > 100 | > 100 | > 100 |  | > 100 |  | > 100 |  | 
12 | COc1cc(C(C#N)NNC(=O)Cc2ccccc2)cc(OC)c1OC (configuration not stated) | > 100 | > 100 | > 100 | > 100 |  | > 100 | > 100 | > 100 | > 100 | > 100 |  | > 100 | > 100 | > 100 |  | > 100 |  |  |  | 
13 | CC(C)(C)OC(=O)NNC(=O)C1Cc2ccccc2OC1=O (configuration not stated) | > 100 | > 100 | > 100 | > 100 | > 100 | > 100 | > 100 | > 100 | > 100 | > 100 | > 100 | > 100 | > 100 | > 100 | > 100 | > 100 |  | > 100 |  | 
14 | CC(OC1CC(=O)CC2C(=O)C=CC(=O)C12)c1ccccc1 (configuration not stated) | 24.1 | 35.8 | 33 | 33.6 |  | 36.4 | 27.3 | 33.3 | 34.9 | 33 |  | 31.9 | 31.4 | 22.4 | 30.6 | 40.2 | 32 | 29.7 |  | 
15 | COc1ccc([C@@H]2CC(=O)NCCCNCCCCNCCCN2)cc1 | > 100 | > 100 | > 100 | > 100 |  | > 100 | > 100 | > 100 | > 100 | > 100 |  | > 100 | > 100 | > 100 | > 100 | > 100 | > 100 | > 100 |  | 
16 | CN1CCC(C(=O)NNc2ccccc2)CC1 | > 68.9 | > 100 | 33 | > 100 |  | > 88.1 | > 63.3 | > 88.4 | > 46.4 | > 100 |  | > 100 | > 51.1 | > 100 | > 100 | > 86.8 | > 100 | 12.6 |  | 
17 | CCOC(=O)CCC(NC(=O)c1ccc(Nc2cnc3cc(C(F)(F)F)ccc3n2)cc1)C(=O)OCC (configuration not stated) | > 100 | 9.64 | 26 | > 100 | > 100 | > 100 | > 100 | > 100 | > 100 | > 100 | 47.7 | 47 | > 100 | > 100 | > 100 | > 100 |  | > 100 |  | 
18 | CCOC(=O)CCSS(=O)(=O)C(F)(F)F | > 100 | > 100 | > 100 | > 100 | > 100 | > 100 | > 100 | > 100 | > 100 |  |  | > 100 | > 100 | > 100 | > 100 | > 100 | > 100 | > 100 |  | 
19 | CC(C)(O)/C=C\P(C)(=O)c1ccccc1 (configuration not stated) | > 100 | > 100 | > 100 | > 100 | > 100 | > 100 | > 100 | > 100 | > 100 | > 100 | > 100 | > 100 | > 100 | > 100 | > 100 | > 100 |  | > 100 |  | 
20 | COc1cc(C2=C(C)[C@@H]3CN(CC=C3c3ccc(Cl)cc3)C2)c(S(=O)(=O)O)cc1OC | > 100 | > 100 | > 100 | > 100 | > 100 | > 100 | > 100 | > 100 | > 100 | > 100 | > 100 | > 100 | > 100 | > 100 | > 100 | > 100 |  |  |  | 
21 | CCc1cccc(CC)c1Nc1nc2c(s1)C(=O)c1ccccc1C2=O | 32 | 40.3 | 27.8 | 32.8 | 31.9 | 35.9 | 74.6 | 32.8 | 39.8 |  | 71.4 | 30 | 98.1 | 31.4 | 36.1 | > 100 |  | 35.6 |  | 
22 | CN/C=C(/c1ccc(OC)cc1)C(O)c1ccc(OC)c(OC)c1 (configuration not stated) | > 100 | > 100 | > 100 | > 100 |  | > 100 | > 100 | > 100 | > 100 | > 100 |  |  | > 100 | > 100 | > 100 | > 100 | > 100 | > 100 |  | 
23 | Cc1ccc(C(=O)OC(C)C)cc1N=NN(C)C | > 100 |  | > 100 | > 100 | > 100 | > 100 | > 100 | > 100 | > 100 | > 100 | > 100 | > 100 | > 100 | > 100 | > 100 | > 100 |  | > 100 |  | 
24 | CC(=O)/C=C(/C=N/O)c1ccccc1 | > 100 |  | > 100 | > 100 | > 100 | > 100 | > 100 | > 100 | > 100 | > 100 | > 100 | > 100 | > 100 | > 100 | > 100 | > 100 |  | > 100 |  | 
25 | COC(=O)c1ccc(/C=C2\Cc3ccccc3C2=O)cc1 | > 100 | > 100 | > 100 | > 100 | > 100 | > 100 | > 100 | > 100 |  | > 100 | > 100 | > 100 | > 100 | > 100 | > 100 | > 100 |  | > 100 |  | 
26 | N#C/C(=C\c1ccc(F)cc1)c1nc2ccccc2c(=O)[nH]1 | > 100 | > 100 | > 100 |  | > 100 | > 100 | > 100 | > 100 | > 100 | > 100 | > 100 | > 100 | > 100 | > 100 | > 100 | > 100 |  | > 100 |  | 
27 | COc1ccc(/C=N/NC(=O)c2ccccc2Nc2ccccc2C(=O)N/N=C/c2ccc(OC)cc2)cc1 | > 100 | > 100 | > 100 | > 100 | > 100 | > 100 | > 100 | > 100 | > 100 | > 100 |  | > 100 | > 100 | > 100 | > 100 | > 100 | > 100 | > 100 |  | 
28 | CCOc1ncn(-c2ccc(NC(=S)Nc3cnccn3)cc2)n1 | > 10 | > 10 | > 10 | > 10 | > 10 |  |  | > 10 | > 10 | > 10 | > 10 |  | > 10 |  | > 10 | > 10 |  |  |  | 
29 | O=S(Nc1ccccc1)c1ccc(-c2ccccc2)cc1 (configuration not stated) | > 100 |  | > 100 | > 100 | > 100 | > 100 | > 100 |  |  | > 100 | > 100 |  | > 100 | > 100 | > 100 | > 100 |  | > 100 |  | 
